In patent publication US11739098B2 (BRISTOL-MYERS SQUIBB COMPANY, priority 2017, dated 2023):

What was measured:
Assay type in all cases: cell-based
human TLR8 = molecular target: T1, human TLR8 (Homo sapiens, UniProt Q9NR97); assay: TLR8 inhibition reporter assay (HEK-Blue cells, SEAP reporter, R848 stimulation); details: HEK-Blue cells overexpressing human TLR8, SEAP reporter, R848 15.9 μM
T1 construct: host or cells: HEK-Blue cells (HEK293-derived reporter line)
T1 sequence (Q9NR97 27-1041): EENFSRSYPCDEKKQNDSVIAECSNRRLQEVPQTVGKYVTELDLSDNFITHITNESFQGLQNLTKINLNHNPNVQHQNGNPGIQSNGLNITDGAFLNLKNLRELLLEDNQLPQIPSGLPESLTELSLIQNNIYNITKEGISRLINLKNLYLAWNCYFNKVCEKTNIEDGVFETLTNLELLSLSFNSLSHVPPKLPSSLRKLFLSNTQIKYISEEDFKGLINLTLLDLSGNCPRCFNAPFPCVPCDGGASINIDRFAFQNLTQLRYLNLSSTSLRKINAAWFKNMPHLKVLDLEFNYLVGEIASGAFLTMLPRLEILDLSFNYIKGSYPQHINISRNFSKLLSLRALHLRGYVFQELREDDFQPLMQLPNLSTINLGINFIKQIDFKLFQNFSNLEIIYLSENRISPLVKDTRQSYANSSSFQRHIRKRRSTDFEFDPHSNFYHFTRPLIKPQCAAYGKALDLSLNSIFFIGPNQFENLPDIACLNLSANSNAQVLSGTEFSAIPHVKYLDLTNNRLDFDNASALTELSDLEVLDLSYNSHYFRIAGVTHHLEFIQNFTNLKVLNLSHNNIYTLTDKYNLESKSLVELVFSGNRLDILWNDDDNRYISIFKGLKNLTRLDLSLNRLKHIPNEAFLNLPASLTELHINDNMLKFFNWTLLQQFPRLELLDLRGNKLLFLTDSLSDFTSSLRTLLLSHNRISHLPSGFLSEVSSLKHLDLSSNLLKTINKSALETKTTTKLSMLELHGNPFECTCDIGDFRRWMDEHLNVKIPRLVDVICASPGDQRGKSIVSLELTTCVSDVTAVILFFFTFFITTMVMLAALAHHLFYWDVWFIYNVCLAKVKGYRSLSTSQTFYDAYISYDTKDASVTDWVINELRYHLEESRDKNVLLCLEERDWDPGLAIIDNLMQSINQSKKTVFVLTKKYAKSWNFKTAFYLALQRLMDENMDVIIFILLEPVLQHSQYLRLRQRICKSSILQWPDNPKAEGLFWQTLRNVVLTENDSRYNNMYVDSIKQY
How it was run: (§1)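 HEK-Blue cells overexpressing the receptor, with NF-κB/AP-1-driven SEAP, were pre-treated 30 min at room temperature with compound (0.05 nM–50 μM), then stimulated with gardiquimod 7.5 μM (TLR7), R848 15.9 μM (TLR8) or ODN2006 5 nM (TLR9). SEAP was read after 22 h at 37 °C as percent inhibition.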

human TLR7 = molecular target: T2, human TLR7 (Homo sapiens, UniProt Q9NYK1); assay: TLR7 inhibition reporter assay (HEK-Blue cells, SEAP reporter, gardiquimod stimulation); details: HEK-Blue cells overexpressing human TLR7, SEAP reporter, gardiquimod 7.5 μM
T2 construct: host or cells: HEK-Blue cells (HEK293-derived reporter line)
T2 sequence (Q9NYK1 27-1049): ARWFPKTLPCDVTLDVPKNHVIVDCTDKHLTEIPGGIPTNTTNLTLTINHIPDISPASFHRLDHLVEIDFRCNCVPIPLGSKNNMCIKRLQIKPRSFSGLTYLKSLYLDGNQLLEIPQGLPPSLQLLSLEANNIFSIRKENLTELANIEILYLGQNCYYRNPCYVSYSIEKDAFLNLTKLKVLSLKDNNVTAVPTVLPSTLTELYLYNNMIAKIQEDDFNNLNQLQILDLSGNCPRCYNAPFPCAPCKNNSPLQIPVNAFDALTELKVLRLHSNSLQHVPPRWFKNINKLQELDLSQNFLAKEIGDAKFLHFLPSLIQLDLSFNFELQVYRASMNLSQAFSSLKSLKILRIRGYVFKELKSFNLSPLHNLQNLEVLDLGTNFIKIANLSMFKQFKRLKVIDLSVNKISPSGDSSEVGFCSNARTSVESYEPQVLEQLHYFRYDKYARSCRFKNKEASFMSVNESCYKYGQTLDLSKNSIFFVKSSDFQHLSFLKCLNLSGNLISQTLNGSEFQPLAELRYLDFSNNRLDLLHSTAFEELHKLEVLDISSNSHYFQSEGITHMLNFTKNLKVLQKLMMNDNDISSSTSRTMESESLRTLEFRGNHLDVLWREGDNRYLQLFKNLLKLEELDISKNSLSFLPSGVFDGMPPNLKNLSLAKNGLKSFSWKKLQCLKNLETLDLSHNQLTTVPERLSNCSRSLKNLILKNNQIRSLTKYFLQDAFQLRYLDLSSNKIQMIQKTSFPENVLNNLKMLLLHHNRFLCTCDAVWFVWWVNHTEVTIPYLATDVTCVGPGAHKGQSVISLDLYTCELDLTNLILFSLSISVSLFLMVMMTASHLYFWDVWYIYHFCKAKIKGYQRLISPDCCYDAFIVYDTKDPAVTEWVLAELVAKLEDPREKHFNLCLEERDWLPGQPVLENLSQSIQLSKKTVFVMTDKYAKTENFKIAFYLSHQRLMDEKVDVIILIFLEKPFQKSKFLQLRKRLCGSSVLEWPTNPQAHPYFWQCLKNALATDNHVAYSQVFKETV
How it was run: as §1

human TLR9 = molecular target: T3, human TLR9 (Homo sapiens, UniProt Q9NR96); assay: TLR9 inhibition reporter assay (HEK-Blue cells, SEAP reporter, ODN2006 stimulation); details: HEK-Blue cells overexpressing human TLR9, SEAP reporter, ODN2006 5 nM
T3 construct: host or cells: HEK-Blue cells (HEK293-derived reporter line)
T3 sequence (Q9NR96 26-1032): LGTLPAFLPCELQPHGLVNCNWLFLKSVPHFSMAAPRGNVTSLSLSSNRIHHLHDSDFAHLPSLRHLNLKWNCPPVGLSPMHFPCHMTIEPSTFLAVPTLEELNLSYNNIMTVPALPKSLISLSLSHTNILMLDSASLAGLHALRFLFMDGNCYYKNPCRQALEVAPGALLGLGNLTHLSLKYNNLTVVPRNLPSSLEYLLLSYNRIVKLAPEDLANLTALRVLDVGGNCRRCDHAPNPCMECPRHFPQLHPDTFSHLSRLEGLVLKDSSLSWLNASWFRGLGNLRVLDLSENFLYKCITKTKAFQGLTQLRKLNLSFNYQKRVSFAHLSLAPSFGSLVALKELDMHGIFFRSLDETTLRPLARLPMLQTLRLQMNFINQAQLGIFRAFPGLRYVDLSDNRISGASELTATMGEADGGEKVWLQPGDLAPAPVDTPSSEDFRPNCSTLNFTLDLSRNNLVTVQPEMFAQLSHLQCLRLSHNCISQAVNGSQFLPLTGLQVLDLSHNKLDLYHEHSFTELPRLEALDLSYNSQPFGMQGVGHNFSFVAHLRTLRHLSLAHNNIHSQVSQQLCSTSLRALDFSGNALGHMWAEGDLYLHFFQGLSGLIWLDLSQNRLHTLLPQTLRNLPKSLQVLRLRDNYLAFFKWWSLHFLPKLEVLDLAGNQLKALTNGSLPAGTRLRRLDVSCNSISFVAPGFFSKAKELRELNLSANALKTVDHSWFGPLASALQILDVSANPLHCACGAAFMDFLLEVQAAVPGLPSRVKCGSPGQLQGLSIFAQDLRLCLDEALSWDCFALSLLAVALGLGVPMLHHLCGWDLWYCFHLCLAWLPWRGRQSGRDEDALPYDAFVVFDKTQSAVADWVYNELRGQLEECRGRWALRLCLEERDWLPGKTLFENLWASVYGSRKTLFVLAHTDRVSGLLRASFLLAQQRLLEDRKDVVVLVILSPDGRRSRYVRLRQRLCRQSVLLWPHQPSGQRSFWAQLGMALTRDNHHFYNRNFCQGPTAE
How it was run: as §1

Row | Compound | IC50 (human TLR8) | IC50 (human TLR7) | IC50 (human TLR9)
1 | Cc1cc(-c2[nH]c3ccc(C4CCN(C(=O)CCN5CC(C)(C)OC(C)(C)C5)CC4)cc3c2C(C)C)cn2nnnc12 [Example 621, 1-(4-(3-isopropyl-2-(8-methyltetrazolo[1,5-a]pyridin-6-yl)-1H-indol-5-yl)piperidin-1-yl)-3-(2,2,6,6-tetramethylmorpholino)propan-1-one] | < 100 nM | < 100 nM | 1000 to 50000 nM
2 | CCc1c(-c2ccnc3[nH]ncc23)[nH]c2ccc(C3CCN(CCN)CC3)cc12 [Example 656, 2-(4-(3-ethyl-2-(1H-pyrazolo[3,4-b]pyridin-4-yl)-1H-indol-5-yl)piperidin-1-yl)ethan-1-amine] | < 100 nM | < 100 nM | 100 to 1000 nM
3 | CC(C)c1c(-c2ccc3nccn3c2)[nH]c2ccc(C3CCN(C(=O)[C@H]4CCCNC4)CC3)cc12 [Example 640, (S)-(4-(2-(imidazo[1,2-a]pyridin-6-yl)-3-isopropyl-1H-indol-5-yl)piperidin-1-yl)(piperidin-3-yl)methanone] | 100 to 1000 nM | < 100 nM | 1000 to 50000 nM
4 | CC(C)c1c(-c2cnc3ncnn3c2)[nH]c2ccc(C3CCN(CC(C)(C)O)CC3)cc12 [Example 773, 1-(4-(2-([1,2,4]triazolo[1,5-a]pyrimidin-6-yl)-3-isopropyl-1H-indol-5-yl)piperidin-1-yl)-2-methylpropan-2-ol] | < 100 nM | 100 to 1000 nM | 1000 to 50000 nM
5 | Cc1nnn2ccc(-c3[nH]c4ccc(C5CCN(Cc6ccn(C)n6)CC5)cc4c3C(C)C)cc12 [Example 888, 5-(3-isopropyl-5-(1-((1-methyl-1H-pyrazol-3-yl)methyl)piperidin-4-yl)-1H-indol-2-yl)-3-methyl-[1,2,3]triazolo[1,5-a]pyridine] | < 100 nM | < 100 nM | 1000 to 50000 nM
6 | Cc1c(-c2ccnc3[nH]ccc23)[nH]c2ccc(C3CCN(C4CCN(CC(C)C)CC4)CC3)cc12 [Example 812, 4-(5-(1′-isobutyl-[1,4′-bipiperidin]-4-yl)-3-methyl-1H-indol-2-yl)-1H-pyrrolo[2,3-b]pyridine] | < 100 nM | < 100 nM | < 100 nM
7 | CC(C)c1c(-c2nc3ccnn3cc2F)[nH]c2ccc(C3CCNCC3)cc12 [Example 147, 6-fluoro-5-(3-isopropyl-5-(piperidin-4-yl)-1H-indol-2-yl)pyrazolo[1,5-a]pyrimidine] | < 100 nM | < 100 nM | 1000 to 50000 nM
8 | CCc1c(-c2ccc3nccn3c2)[nH]c2cc(F)c(C3CCNCC3)c(F)c12 [Example 257, 6-(3-ethyl-4,6-difluoro-5-(piperidin-4-yl)-1H-indol-2-yl)imidazo[1,2-a]pyridine] | < 100 nM | < 100 nM | < 100 nM
9 | CC(C)c1c(-c2ccnc3[nH]ncc23)[nH]c2ccc(C3CCNC(=O)C3)cc12 (stereo not drawn) [Example 248, 4-(3-Isopropyl-2-(1H-pyrazolo[3,4-b]pyridin-4-yl)-1H-indol-5-yl)piperidin-2-one] | < 100 nM | 100 to 1000 nM | > 50000 nM
10 | Cc1c(-c2[nH]c3ccc(C4CCNCC4)cc3c2C(C)C)ccc2nnnn12 [Example 72, 6-(3-isopropyl-5-(piperidin-4-yl)-1H-indol-2-yl)-5-methyltetrazolo[1,5-a]pyridine] | < 100 nM | 100 to 1000 nM | 1000 to 50000 nM
11 | FC(F)Cc1c(-c2ccnc3[nH]ncc23)[nH]c2ccc(C3CCNCC3)cc12 [Example 178, 4-(3-(2,2-difluoroethyl)-5-(piperidin-4-yl)-1H-indol-2-yl)-1H-pyrazolo[3,4-b]pyridine] | 100 to 1000 nM | 100 to 1000 nM | 1000 to 50000 nM
12 | CNC(=O)CN1CCC(c2ccc3[nH]c(-c4cc(C)c5oc(=O)[nH]c5c4)c(C(C)C)c3c2)CC1 [Example 337, 2-(4-(3-isopropyl-2-(7-methyl-2-oxo-2,3-dihydrobenzo[d]oxazol-5-yl)-1H-indol-5-yl)piperidin-1-yl)-N-methylacetamide] | 100 to 1000 nM | 100 to 1000 nM | 1000 to 50000 nM
13 | Cc1cc2nnnn2cc1-c1[nH]c2ccc(C3CCN(CCS(C)(=O)=O)CC3)cc2c1C(C)C [Example 790, 6-(3-isopropyl-5-(1-(2-(methylsulfonyl)ethyl)piperidin-4-yl)-1H-indol-2-yl)-7-methyltetrazolo[1,5-a]pyridine] | < 100 nM | < 100 nM | 1000 to 50000 nM
14 | CNCC(=O)N1CCC(c2ccc3[nH]c(-c4cn5cc(C)nc5cc4C)c(C(C)C)c3c2)CC1 [Example 510, 1-(4-(2-(2,7-dimethylimidazo[1,2-a]pyridin-6-yl)-3-isopropyl-1H-indol-5-yl)piperidin-1-yl)-2-(methylamino)ethan-1-one] | 1000 to 50000 nM | < 100 nM | 100 to 1000 nM
15 | Cc1cn2cc(-c3[nH]c4ccc(C5CCNCC5)cc4c3C(C)C)ccc2n1 [Example 115, 6-(3-isopropyl-5-(piperidin-4-yl)-1H-indol-2-yl)-2-methylimidazo[1,2-a]pyridine] | 100 to 1000 nM | < 100 nM | 100 to 1000 nM
